Source: patent publication US20180339015A1, “Therapeutic Nanoparticles Comprising An Antibiotic and Methods of Making and Using Same” (priority 2015, published 2018)

What was measured:
Klebsiella = Klebsiella thigh infection model, efficacy and biodistribution; assay type: in vivo
Description: CS-NPs were further tested for their efficacy and biodistribution in a Klebsiella thigh infection model. […] In summary. CS-NPs have the same efficacy as free CS in a thigh infection model after 24 hours.

K. pneumonia = K. pneumonia lung infection model; assay type: in vivo; conditions: single 40 mg/kg dose s.c., n=6
Description: CS-NPs were tested for their efficacy in a K. pneumonia lung infection model. Results are depicted in FIG. 11.

[1] = mice, intravenous injection
Citrobacter spp = conditions: cited from earlier work
K. pneumoniae = conditions: cited from earlier work
Salmonella spp = conditions: cited from earlier work
E. coli = conditions: cited from earlier work
Acinetobacter species = conditions: cited from earlier work
P. aeruginosa = conditions: cited from earlier work
Shigella spp = conditions: cited from earlier work
Enterobacter spp = conditions: cited from earlier work

Q: What does the source list for colistin sulphate [CS]?
A: bacteremia (Klebsiella; thigh infection model): prevented bacteremia; bacteria counts in site of infection (Klebsiella; thigh, after 24 hours): significantly decreased bacteria counts; animals sterilized (K. pneumonia): 50%; LD50 [1]: 6 mg/kg; MTD [1]: 2 mg/kg

Q: What does the source list for colistin?
A: MIC90 (Citrobacter spp): ≤ 1 µg/mL; MIC90 (K. pneumoniae): ≤ 1 µg/mL; MIC90 (Salmonella spp): ≤ 1 µg/mL; MIC90 (E. coli): ≤ 2 µg/mL; MIC90 (Acinetobacter species): ≤ 2 µg/mL; MIC90 (P. aeruginosa): ≤ 4 µg/mL; MIC90 (Shigella spp): ≤ 0.5 µg/mL; MIC50 (Enterobacter spp): ≤ 1 µg/mL
